Assay results published in US6559102B1, “Substituted 3-aryl-pyrazoles” (Bayer Aktiengesellschaft, priority 1998, dated 2003).

Columns and labels:
[1] = log P determination by HPLC, reversed-phase column (EEC Directive 79/831 Annex V.A8); assay type: physicochemical; settings: reversed-phase C 18, 43° C., acidic range: 0.1% aqueous phosphoric acid, acetonitrile, gradient 10% to 90% (data labelled a))
Method: The log P values given in Table 1 were determined in accordance with the EEC Directive 79/831 Annex V.A8 by HPLC (High Performance Liquid Chromatography) using a reversed-phase column (C 18). Temperature: 43° C. (a) Mobile phases for the determination in the acidic range: 0.1% aqueous phosphoric acid, acetonitrile; linear gradient from 10% acetonitrile to 90% acetonitrile—the corresponding data are labelled a) in Table 1. (b) Mobile phases for the determination in the neutral range: 0.01 molar aqueous phosphate buffer solution, acetonitrile; linear gradient from 10% acetonitrile to 90% acetonitrile—the corresponding data are labelled b) in Table 1. The calibration was carried out using unbranched alkan-2-ones (having from 3 to 16 carbon atoms) whose log P values are known (determination of the log P values by the retention times by linear interpolation between two successive alkanones).

weeds [2] = experiment: Post-emergence test (Example B), activity against weeds; assay type: in vivo; settings: test plants 5-15 cm sprayed, rated after three weeks
Method: Post-emergence Test Solvent: 5 parts by weight of acetone Emulsifier: 1 part by weight of alkylaryl polyglycol ether To produce a suitable preparation of active compound, 1 part by weight of active compound is mixed with the stated amount of solvent, the stated amount of emulsifier is added and the concentrate is diluted with water to the desired concentration. Test plants which have a height of 5-15 cm are sprayed with the preparation of the active compound in such a way as to apply the particular amounts of active compound desired per unit area. The concentration of the spray liquor is chosen so that the amounts of active compound desired in each case are applied in 1000 l of water/ha. After three weeks, the degree of damage to the plants is rated in % damage in comparison with the development of the untreated control. The figures denote: 0%=no effect (like untreated control) 100%=total destruction

weeds [3] = experiment: Pre-emergence test (Example A), activity against weeds; assay type: in vivo; settings: soil sprayed about 24 hours after sowing, rated after three weeks
Method: (§1) Pre-emergence Test Solvent: 5 parts by weight of acetone Emulsifier: 1 part by weight of alkylaryl polyglycol ether To produce a suitable preparation of active compound, 1 part by weight of active compound is mixed with the stated amount of solvent, the stated amount of emulsifier is added and the concentrate is diluted with water to the desired concentration. Seeds of the test plants are sown in normal soil. After approximately 24 hours, the soil is sprayed with the preparation of the active compound in such a way as to apply the particular amount of active compound desired per unit area. The concentration of the spray liquor is chosen so that the amount of active compound desired in each case is applied in 1000 liter of water per hectare. After three weeks, the degree of damage to the plants is rated in % damage in comparison with the development of the untreated control. The figures denote: [table]

[4] = system: crop plants, such as, for example, barley, wheat, maize and soya; experiment: Pre-emergence test (Example A), compatibility with crop plants; assay type: in vivo; settings: rated after three weeks
Method: as §1

Cn1nc(-c2cc(Oc3ccc(C(F)(F)F)cc3)c(C#N)cc2F)c(Cl)c1OC(F)F [Example 52]
log P [1]: logP: 4.59^a)

Cc1cccc(Oc2cc(-c3nn(C)c(OC(F)F)c3Cl)c(F)cc2C#N)c1 [Example 57]
log P [1]: logP: 4.43^a)

Cn1nc(-c2cc(Oc3cccc(OC(F)(F)F)c3)c(C#N)cc2F)c(Cl)c1OC(F)F [Example 123]
log P [1]: logP: 4.72^a)

CC(=O)c1ccc(Oc2cc(-c3nn(C)c(OC(F)F)c3Cl)c(F)cc2C#N)cc1 [Example 84]
log P [1]: logP: 3.66^a)

Cn1nc(-c2cc(Oc3ccc(Cl)c(Cl)c3)c(C#N)cc2F)c(Cl)c1OC(F)F [Example 118]
log P [1]: logP: 4.89^a)

CN(C)C(=O)c1ccccc1Oc1cc(-c2nn(C)c(OC(F)F)c2Cl)c(F)cc1C#N [Example 115]
log P [1]: logP: 3.20^a)

Cc1ccc(Oc2cc(-c3nn(C)c(OC(F)F)c3Cl)c(F)cc2C#N)cc1C [Example 120]
log P [1]: logP: 4.74^a)

Cn1nc(-c2cc(Oc3ccc(Cl)cc3)c(C#N)cc2F)c(Cl)c1OC(F)F [Example 69]
log P [1]: logP: 4.49^a)

CCN(CC)c1cccc(Oc2cc(-c3nn(C)c(OC(F)F)c3Cl)c(F)cc2C#N)c1 [Example 122]
log P [1]: logP: 4.40^a)

Cn1nc(-c2cc(Oc3ccccc3)c(C#N)cc2F)c(Cl)c1C(F)(F)F [Example 2, 4-chloro-3-(4-cyano-2-fluoro-5-phenoxyphenyl)-1-methyl-5-trifluoromethyl-1H-pyrazole]
melting point: 123 °C

CCOC(=O)C(C)Oc1ccc(Oc2cc(-c3nn(C)c(OC(F)F)c3Br)c(F)cc2C#N)cc1 (stereo not shown) [Example 1, ethyl 2-[4-[2-cyano-5-[4-bromo-5-(difluoromethoxy)-1-methyl-1H-pyrazo-3-yl]-4-fluoro-phenoxy]-phenoxy]-propionate]
activity against weeds (degree of damage) (weeds [2]): strong activity against weeds | melting point: 60 °C | activity against weeds (degree of damage) (weeds [3]): strong activity against weeds | compatibility with crop plants [4]: good compatibility with crop plants

COc1cccc(Oc2cc(-c3nn(C)c(OC(F)F)c3Cl)c(F)cc2C#N)c1OC [Example 124]
log P [1]: logP: 3.98^a)

COc1cccc(Oc2cc(-c3nn(C)c(OC(F)F)c3Br)c(F)cc2C#N)c1OC [Example 112]
log P [1]: logP: 3.80^a)

Cn1nc(-c2cc(Oc3cccc(C(F)(F)F)c3)c(C#N)cc2F)c(Cl)c1OC(F)F [Example 51]
log P [1]: logP: 4.55^a)

Cn1nc(-c2cc(Oc3ccccc3F)c(C#N)cc2F)c(Cl)c1OC(F)F [Example 70]
log P [1]: logP: 4.02^a)

Cc1ccccc1Oc1cc(-c2nn(C)c(OC(F)F)c2Cl)c(F)cc1C#N [Example 56]
log P [1]: logP: 4.40^a)

COc1ccc(Oc2cc(-c3nn(C)c(OC(F)F)c3Cl)c(F)cc2C#N)cc1 [Example 61]
log P [1]: logP: 4.05^a)

Cn1nc(-c2cc(Oc3ccc(OC(F)(F)F)cc3)c(C#N)cc2F)c(Cl)c1OC(F)F [Example 76]
log P [1]: logP: 4.70^a)

Cn1nc(-c2cc(Oc3cccc(F)c3F)c(C#N)cc2F)c(Cl)c1OC(F)F [Example 117]
log P [1]: logP: 4.13^a)

COc1ccccc1Oc1cc(-c2nn(C)c(OC(F)F)c2Cl)c(F)cc1C#N [Example 59]
log P [1]: logP: 3.98^a)

CN(C)Cc1ccccc1Oc1cc(-c2nn(C)c(OC(F)F)c2Cl)c(F)cc1C#N [Example 121]
log P [1]: logP: 2.03^a)

COc1cccc(Oc2cc(-c3nn(C)c(OC(F)F)c3Cl)c(F)cc2C#N)c1 [Example 60]
log P [1]: logP: 4.13^a)

Cn1nc(-c2cc(Oc3cccc(F)c3)c(C#N)cc2F)c(Cl)c1OC(F)F [Example 71]
log P [1]: logP: 4.17^a)

COc1ccc(Oc2cc(-c3nn(C)c(OC(F)F)c3Cl)c(F)cc2C#N)cc1OC [Example 126]
log P [1]: logP: 3.72^a)

Cn1nc(-c2cc(Oc3ccccc3Cl)c(C#N)cc2F)c(Cl)c1OC(F)F [Example 67]
log P [1]: logP: 4.28^a)

Cc1ccc(Oc2cc(-c3nn(C)c(OC(F)F)c3Cl)c(F)cc2C#N)cc1 [Example 58]
log P [1]: logP: 4.45^a)

Cn1nc(-c2cc(Oc3cccc(Cl)c3)c(C#N)cc2F)c(Cl)c1OC(F)F [Example 68]
log P [1]: logP: 4.49^a)

CC(C)Oc1ccccc1Oc1cc(-c2nn(C)c(OC(F)F)c2Cl)c(F)cc1C#N [Example 119]
log P [1]: logP: 4.55^a)

Cn1nc(-c2cc(Oc3ccc(F)cc3)c(C#N)cc2F)c(Cl)c1OC(F)F [Example 72]
log P [1]: logP: 4.13^a)

CN(C)c1cccc(Oc2cc(-c3nn(C)c(OC(F)F)c3Cl)c(F)cc2C#N)c1 [Example 116]
log P [1]: logP: 4.38^a)

Cc1ccc(Cl)c(Oc2cc(-c3nn(C)c(OC(F)F)c3Cl)c(F)cc2C#N)c1 [Example 125]
log P [1]: logP: 4.59^a)
